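Each compound was tested at five concentrations against cells in 96-well plates for 48 hours. The concentration for 50% growth inhibition is given as GI50. TGI: concentration producing complete growth inhibition.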
Tests used:
Assay in all cases: NCI-60 cell line screen, 48 h
[1] = system: KM12 colon
[2] = system: BT-549 breast
[3] = system: MCF7 breast
[4] = system: HS 578T breast
[5] = system: NCI-H522 lung
[6] = system: MDA-N
[7] = system: U251 CNS
[8] = system: RPMI-8226 leukemia
[9] = system: HCC-2998 colon
[10] = system: OVCAR-3 ovarian

SMILES | TGI [1] [µM] | TGI [2] [µM] | TGI [3] [µM] | TGI [4] [µM] | TGI [5] [µM] | TGI [6] [µM] | TGI [7] [µM] | TGI [8] [µM] | TGI [9] [µM] | TGI [10] [µM] | GI50 [8] [µM] | GI50 [1] [µM] | GI50 [2] [µM] | GI50 [3] [µM] | GI50 [4] [µM] | GI50 [5] [µM] | GI50 [7] [µM] | GI50 [9] [µM] | GI50 [10] [µM]
CCOc1cc2c(cc1O)C(=O)C[C@@H]1[C@@H]2CC[C@]2(C)[C@@H](O)CC[C@@H]12 | 29.6 | 28.9 | > 100 | > 12.4 | 3.2 | 0.106 | > 51.9 | > 9.48 | 4.56 | 1.7 | – | – | – | – | – | – | – | – | –
COC(=O)C1Cc2cc3c(cc2C1)CCC3 | > 100 | > 100 | > 100 | > 100 | – | > 100 | > 100 | > 100 | > 100 | > 100 | – | – | – | – | – | – | – | – | –
O=C1N[C@H](C(=O)O)[C@@H](c2ccc(OCc3ccccc3)cc2)O1 | > 100 | > 100 | > 100 | > 100 | > 100 | > 100 | > 100 | > 100 | > 100 | > 100 | – | – | – | – | – | – | – | – | –
CC(C)C(=O)/C=C/c1c(Cl)cccc1Cl | 11.9 | 9.81 | 15.8 | 9.72 | 3.11 | 11.8 | 11.7 | > 100 | 29 | 6.56 | – | – | – | – | – | – | – | – | –
C=CCOCn1cnc2c(=O)[nH]c(N)nc21 | > 100 | – | > 100 | > 100 | – | > 100 | > 100 | > 100 | > 100 | – | – | – | – | – | – | – | – | – | –
Cc1ccc(-c2cc(=O)c(=O)[nH][nH]2)cc1 | > 100 | > 100 | > 100 | > 100 | > 100 | > 100 | > 100 | – | > 100 | > 100 | – | – | – | – | – | – | – | – | –
O=C(CCCn1ccnc1[N+](=O)[O-])NCCn1cnc([N+](=O)[O-])n1 | > 100 | > 100 | > 100 | > 100 | > 100 | > 100 | > 100 | > 100 | – | > 100 | – | – | – | – | – | – | – | – | –
CN(C)NC1=NS(=O)(=O)c2cc3c(=O)n(C)[nH]c3cc2S1 | > 10 | > 10 | > 10 | > 10 | > 10 | > 10 | > 10 | > 10 | > 10 | > 10 | – | – | – | – | – | – | – | – | –
Cn1c(=S)[nH]c(N)c(Cc2ccccc2)c1=O | > 100 | > 100 | > 100 | > 100 | – | > 100 | > 100 | > 100 | > 100 | > 100 | – | – | – | – | – | – | – | – | –
CN(Cc1cnc2nc(N)nc(N)c2n1)c1ccc(C(=O)NCCCC(=O)O)cc1 | > 100 | > 100 | > 100 | > 100 | > 100 | > 100 | > 100 | > 100 | > 100 | > 100 | – | – | – | – | – | – | – | – | –
COc1ccc(/C=C/C(=O)CCN2CCN(CCC(=O)/C=C/c3ccc(OC)cc3)CC2)cc1 | 23 | 39.9 | 13.6 | 70 | – | 10.5 | 26.6 | – | 24.7 | 28.8 | – | – | – | – | – | – | – | – | –
COc1ccc(CNc2nc3cc(C(F)(F)F)ccc3nc2C(=O)O)cc1 | 63.6 | 69.6 | 64.9 | – | – | 74.6 | > 100 | > 100 | 71.3 | 34.1 | – | – | – | – | – | – | – | – | –
Cc1cc(N=Cc2c(CO)cnc(C)c2O)c(N=Cc2c(CO)cnc(C)c2O)cc1C | > 100 | – | > 100 | > 100 | > 100 | > 100 | > 100 | > 100 | > 100 | > 100 | 26.1 | – | – | – | – | – | – | – | –
CC(=O)OCC1OC(O[C@H]2C=C[C@@H](C(=O)OCc3ccccc3)n3c(=O)n(-c4ccccc4)c(=O)n32)C(OC(C)=O)C(OC(C)=O)C1OC(C)=O (stereo not given in full) | 12.2 | 3.29 | – | 4.55 | 2.83 | 7.1 | 4.81 | 3.31 | 3.22 | 3.18 | – | – | – | – | – | – | – | – | –
CN1CCc2c(sc3ncn(Nc4ccc(F)cc4)c(=N)c23)C1 | > 100 | > 100 | > 100 | > 100 | > 100 | > 100 | > 100 | > 100 | – | > 100 | – | – | – | – | – | – | – | – | –
O=C1c2ccccc2C(=O)N1NC1=NCCN1 | > 100 | > 100 | > 100 | – | > 100 | > 100 | > 100 | > 100 | > 100 | > 100 | – | – | – | – | – | – | – | – | –
O=c1c2cc([N+](=O)[O-])ccc2n2n1CCCCC2 | > 100 | – | – | > 100 | > 100 | > 100 | > 100 | > 100 | > 100 | > 100 | – | – | – | – | – | – | – | – | –

SMILES | TGI [1] [µM] | TGI [2] [µM] | TGI [3] [µM] | TGI [4] [µM] | TGI [5] [µM] | TGI [6] [µM] | TGI [7] [µM] | TGI [8] [µM] | TGI [9] [µM] | TGI [10] [µM] | GI50 [8] [µM] | GI50 [1] [µM] | GI50 [2] [µM] | GI50 [3] [µM] | GI50 [4] [µM] | GI50 [5] [µM] | GI50 [7] [µM] | GI50 [9] [µM] | GI50 [10] [µM]
C=C(C)[C@H]1CC(=O)[C@@]2(C)C[C@H]3O[C@]3(C)CC/C=C(\C)CC[C@H]12 | 54.6 | – | 57.3 | – | > 100 | > 100 | > 100 | 91.9 | > 100 | 80.1 | – | – | – | – | – | – | – | – | –
O=C(Nc1ccc(F)cc1)c1cc2c(cc1Cl)Sc1nccn1S2(=O)=O | > 100 | – | > 100 | > 100 | > 100 | > 100 | 45.2 | – | > 100 | > 100 | – | – | – | – | – | – | – | – | –
C=C(C)CCC(O)[C@](C)(O)[C@H]1[C@H](O)C[C@@]2(C)[C@@H]3CCc4c(cc(OC5OC(CO)C(O)C(O)C5O)c(O)c4C)C3(C)C(=O)C[C@]12C (stereo not given in full) | > 100 | > 100 | > 100 | – | > 100 | > 100 | > 100 | – | > 100 | > 100 | – | – | – | – | – | – | – | – | –
Cc1cccc(-c2nc(-c3cnccn3)n(Cc3ccccc3)n2)c1 | > 100 | > 100 | > 100 | – | > 100 | > 100 | > 100 | > 100 | > 100 | > 100 | – | – | – | – | – | – | – | – | –
O=C(O)c1ccc(Nc2cnc3cc(C(F)(F)F)ccc3n2)cc1 | > 100 | – | > 100 | > 100 | 60.6 | > 100 | > 100 | > 100 | 80.7 | > 100 | – | – | – | – | – | – | – | – | –
c1ccc2c(c1)-c1ccccc1C2NC1=NCCO1 | 33.2 | – | 60.8 | > 100 | 51.4 | 24 | > 100 | 91.9 | 33.3 | 67.8 | – | – | – | – | – | – | – | – | –
C#CCNC(=O)CC[C@@H](C)[C@H]1CC[C@H]2[C@@H]3CC[C@@H]4CC(=O)CC[C@]4(C)[C@H]3CC[C@]12C | 70.2 | 36.7 | 52.7 | 77.3 | 16.6 | – | 39.4 | 19.1 | 54.1 | 36.1 | 1.82 | 18.8 | 13.7 | 12 | 21.3 | 3.69 | 15.8 | 19.7 | 13.8
CN(/N=C/C=N/N(C)C1=NCCN1)C1=NCCN1 | > 100 | > 100 | > 100 | > 100 | > 100 | > 100 | > 100 | – | > 100 | > 100 | – | – | – | – | – | – | – | – | –
COCCCNc1c2ccccc2nc2ccccc12 | 24.6 | 53.2 | 5.27 | 9.32 | 6.8 | 8.78 | – | – | 4.58 | 7.55 | – | – | – | – | – | – | – | – | –
CC(C)c1c(O[Si](C(C)C)(C(C)C)C(C)C)cc2c(c1O)CC[C@H]1C(C)(C)CCC[C@]21C | > 100 | – | > 100 | > 100 | > 100 | > 100 | > 100 | > 100 | – | > 100 | – | – | – | – | – | – | – | – | –
COc1ccc(Nc2cc(=O)[nH]c(=O)[nH]2)cc1 | > 100 | > 100 | > 100 | > 100 | – | > 100 | > 100 | > 100 | > 100 | > 100 | – | – | – | – | – | – | – | – | –
CC(C)C(/C=C/c1ccc(Cl)cc1)=N\NC(=O)N/N=C(/C=C/c1ccc(Cl)cc1)C(C)C | > 100 | 97.9 | > 100 | 50.8 | – | > 100 | 30.6 | > 100 | > 100 | 35.8 | – | – | – | – | – | – | – | – | –
COc1cc(OC)c(/C=N\Nc2nc3ccccc3c(=O)n2-c2ccccc2)c(OC)c1 | > 31.6 | – | > 73.8 | – | > 100 | 43.9 | > 100 | > 100 | > 100 | 50.9 | – | – | – | – | – | – | – | – | –
C#CCn1c(=O)ccn(/C(=C/C(=O)OCC)C(=O)OCC)c1=O | 33.8 | 23.2 | 13 | 43.5 | – | 41.1 | 35.4 | > 24.6 | – | 13.7 | – | – | – | – | – | – | – | – | –
O=C(OCC(OC(=O)c1ccccc1)C1CC(C2(O)CCCCC2)C(=O)O1)c1ccccc1 (stereo not given) | > 25 | > 25 | > 25 | – | > 25 | > 25 | > 25 | > 25 | > 25 | > 25 | – | – | – | – | – | – | – | – | –
COC(=O)c1c2c(cc3c1CC1(C3)Cc3cc4c(c(C(=O)OC)c3C1)CCC4)CCC2 | > 100 | – | > 100 | > 100 | > 100 | > 100 | > 100 | > 100 | > 100 | > 100 | – | – | – | – | – | – | – | – | –
